# Data as given in patent US9856247B2, “4-methyl-dihydropyrimidines for the treatment and prophylaxis of Hepatitis B virus infection” (Hoffmann-La Roche Inc., priority 2012, dated 2018).
# Key:
# HBV = HBV infected transgenic mouse or humanized mouse models; cited from earlier work
# [1] = Stability in mouse liver homogenate; type: in vitro ADME, CD-1 mouse
# Procedure: In this experiment, fresh mouse liver sample was homogenized by adding saline (1 g liver tissue: 5 mL saline) immediately after collection. After centrifuging for 10 minutes at 14000 rpm, the pooled supernatant was used to prepare liver homogenate solutions. […] Then, they were incubated at rt. After incubation time of 0, 15 and 30 minutes, 180 μl aliquots of MeOH was added into 20 μl of homogenate, respectively. All these samples were vortex mixed for 5 minutes at 1500 rpm and centrifuged for 10 minutes at 14000 rpm. The supernatants were transferred into a 96-well plate for LC-MS/MS analysis.
# The Chromatographic separation was achieved on a Chromolith Performance RP-18 endcapped (3×100 mm) at room temperature.
# Data processing was performed with Agilent MassHunter Workstation Data Acquisition B.04.00 and Agilent MassHunter Workstation Qualitative Analysis B.04.00.
# [2] = Incubation with mouse liver microsomes (metabolite formation); type: in vitro ADME, male CD-1 mouse; details: 5 μM, 1 mM NADPH, 60 minutes
# Procedure: (§1) In this experiment, pooled liver microsomes (20 mg/ml) from human, male Wister rat and male CD-1 mouse were obtained from BD Bioscience (Franklin Lakes, N.J. USA). Incubation reaction mixtures contained a final concentration of 0.1M sodium phosphate buffer (pH 7.4), 0.5 mg/ml microsomal protein, 5 μM of the tested compounds and 1 mM NADPH in a total volume of 400 μl. The incubations were done for 60 minutes and 300 μl of the mixtures was transferred to 150 μl of ice cold methanol to terminate reactions. After vortexes for 3 minutes and centrifuged at 4000 rpm at 4° C. for 10 minutes, the clear supernatant was used directly for analysis. The samples were analyzed by Applied Biosystems API 3200 Q TRAP LC/MS/MS system using electrospray ionization mode.
# [3] = Incubation with human liver microsomes (metabolite formation); type: in vitro ADME; details: 5 μM, 1 mM NADPH, 60 minutes
# Procedure: as §1
# [4] = Incubation with rat liver microsomes (metabolite formation); type: in vitro ADME, male Wister rat; details: 5 μM, 1 mM NADPH, 60 minutes
# Procedure: as §1
compound,measurement,setting,value
COC(=O)C1=C(C)NC(c2ncc(F)cc2F)=N[C@H]1c1ccc(F)cc1Cl [Bay 41-4109],in vivo efficacy (HBV DNA reduction),HBV,demonstrated in vivo efficacy with HBV DNA reduction
same,Percentage to 0 min,"[1]; 100 ng/mL, incubation time 0 min",100%
same,Percentage to 0 min,"[1]; 100 ng/mL, incubation time 15 min, rt",1.84%
same,Percentage to 0 min,"[1]; 300 ng/mL, incubation time 0 min",100%
same,Percentage to 0 min,"[1]; 300 ng/mL, incubation time 30 min, rt",0%
same,Percentage to 0 min,"[1]; 1000 ng/mL, incubation time 0 min",100%
same,Percentage to 0 min,"[1]; 1000 ng/mL, incubation time 15 min, rt",1.90%
same,Percentage to 0 min,"[1]; 1000 ng/mL, incubation time 30 min, rt",0.16%
same,compound detected after incubation,"[1]; 15 minutes room temperature incubation, at three different concentration levels",About 2%
same,stability in liver homogenate treated with saline,[1]; conclusion in words,not stable
same,conversion to pyrimidine product XLVI,[2],oxidized to pyrimidine product XLVI
same,conversion to pyrimidine product XLVI,[3],converted to XLVI
same,conversion to pyrimidine product XLVI,[4],oxidized to pyrimidine product XLVI
